What is called EC50 is the concentration that produces a half-maximal response. By Emax is commonly meant the size of the effect at its maximum, as opposed to the concentration needed. A word on the pEC50: it is −log10 of the EC50, conventionally taken in molar units. A word on the solubility: it is the concentration that dissolves in the medium under given conditions.

In one data set the target is T1, human CRF2α receptor (Homo sapiens, UniProt Q13324).
T1 construct: expressed in transfected cells; host or cells: TeloHEAC
T1 sequence (Q13324 1-411): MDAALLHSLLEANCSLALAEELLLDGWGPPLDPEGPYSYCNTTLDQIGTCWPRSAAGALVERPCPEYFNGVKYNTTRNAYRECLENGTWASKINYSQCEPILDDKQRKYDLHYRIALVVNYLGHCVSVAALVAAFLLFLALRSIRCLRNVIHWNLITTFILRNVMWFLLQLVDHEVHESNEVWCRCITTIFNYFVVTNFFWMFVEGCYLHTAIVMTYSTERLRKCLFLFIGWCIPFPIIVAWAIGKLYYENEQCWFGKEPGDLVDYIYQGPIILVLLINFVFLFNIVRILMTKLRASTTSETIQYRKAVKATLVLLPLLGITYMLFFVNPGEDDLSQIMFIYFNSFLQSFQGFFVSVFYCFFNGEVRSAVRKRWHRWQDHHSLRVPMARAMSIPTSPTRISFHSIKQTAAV
Nature of the data set: cAMP agonism at human CRF2α receptor in TeloHEAC cells, FA modified peptides (Example 19.9). Format: cell-based. Conditions: 0% HSA, relative to urocortin 2. In outline:
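Efficacy and EC50 are referenced to 100 nM urocortin 2 as 100%, with cAMP measured as the 665/620 nm HTRF ratio after 1 h at room temperature. Compounds (0.5 mM DMSO stock, 16 twofold dilutions) acted 30 min at 37 °C on CRF2α-expressing TeloHEAC cells, buffer containing IBMX and 0% or 0.2% HSA.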

For the next data set, the target named is T2, CRF1R receptor (Homo sapiens, UniProt P34998).
T2 construct: host or cells: CHO-K1 clone 2
T2 sequence (P34998 24-415): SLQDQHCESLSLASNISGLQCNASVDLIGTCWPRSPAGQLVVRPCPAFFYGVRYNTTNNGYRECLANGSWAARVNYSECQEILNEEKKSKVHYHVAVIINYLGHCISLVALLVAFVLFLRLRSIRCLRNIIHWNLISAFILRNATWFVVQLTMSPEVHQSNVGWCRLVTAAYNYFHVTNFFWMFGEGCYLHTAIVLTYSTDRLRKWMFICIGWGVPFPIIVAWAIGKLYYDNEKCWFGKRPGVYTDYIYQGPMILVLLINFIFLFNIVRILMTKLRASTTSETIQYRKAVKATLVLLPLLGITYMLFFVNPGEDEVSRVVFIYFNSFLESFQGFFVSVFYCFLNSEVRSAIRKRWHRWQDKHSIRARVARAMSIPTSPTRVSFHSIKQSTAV
The data set can be described thus: cAMP activity at anti-target CRF1R, CHO-K1 cell line clone 2 (Example 19.10). In kind it is cell-based. Particulars: for EC50: 0% HSA, read-out: EC50 [nM] 0% HSA; for EC50 / Emax: CRF1R CHO-K1 clone 2; for Emax: 100% = Sauvagine at 100 nM; for pEC50: Table 20 side-to-side comparison, read-out: CRF1 EC50; for CRF1/CRF2 ratio: ratio of CRF1 EC50 to CRF2 EC50. In outline: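 The cAMP read-out used the same protocol as the previous assay, except that Sauvagine at 100 nM set the 100% activation control. Cells were CHO-K1 clone 2 overexpressing CRF1R, cultured in F12 medium with 10% FBS and G418 and stored frozen until use.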

Data set [1] can be described thus: In vitro plasma stability, rat plasma (Example 19.11). In kind it is in vitro ADME, Sprague Dawley rats. More on the design: remaining at 2 h: dose or concentration left out as unconfirmed. Conditions: 37° C.; for remaining at 2 h: male, Sprague Dawley, rat, plasma. On the procedure: (§1) In vitro plasma metabolic stability was studied in male Sprague Dawley rats and human. Test compound were incubated […] for 2 hours at 37° C. At each time point (0, 0.25, 1 and 2 h), samples were prepared for analysis by means of a single step protein precipitation technique by adding 150 μL of ethanol, 0.1% formic acid to 50 μL aliquots of plasma. Samples were mixed by vortex for homogeneity and then subjected to centrifugation at 14000 rpm for 15 min. The supernatant (100 μL) was collected, diluted with 100 μL of water, 0.1% formic acid and analyzed by LC-HRMS (TripleTOF 6600+, AB Sciex). For each test compound, the area ratios at each time point were compared to the 0 h area ratio and converted to a percentage remaining.

Data set [2] in a line: In vitro plasma stability, human plasma (Example 19.11). In kind it is in vitro ADME. More on the design: dose or concentration left out as unconfirmed. Conditions: 37° C. On the procedure: as §1
A short description of data set [3]: Buffer solubility by LC-UV, pH 7.4 phosphate and pH 4.5 acetate (Example 19.11). Conditions: target 10 mg/mL. In kind it is physicochemical. How it is done:
(§2) As for example 15 above, also the chemical stability of representative examples of these FA modified peptides has been assessed, using LC-UV instead of light scattering. Solubility and chemical stability were studied in 100 mM phosphate buffer (pH 7.4) and 100 mM acetate buffer (pH 4.5). Test compound powders were dissolved in both buffers at a target concentration of 10 mg/mL and incubated for 1 hour at room temperature. After centrifugation at 2500 rcf for 15 minutes, […] of supernatant was diluted with […] of the incubation buffer and analyzed by LC-UV (Acquity UPLC-DAD, Waters). Solubility was calculated by comparing the peak area of the test compound in the buffer sample with the peak area of the same compound dissolved at 0.5 mg/ml in water:acetonitrile 1:1, 0.1% formic acid.

A short description of data set [4]: Chemical stability as % loss by LC-UV, 28 days 40° C. vs 5° C. (Example 19.11). In kind it is physicochemical. How it is done: as §2
From the centrifuged supernatant, two additional […] aliquots were collected and diluted with […] of incubation buffer. One aliquot was stored at 5° C., while the other was stored at 40° C. After 28 days, the samples were analyzed by LC-UV. Chemical stability was calculated as % loss using the following equations: • Chemical stability (as % loss)=[(purity after 28 days at 5° C.)−(purity after 28 days at 40° C.)]×100/(purity after 28 days at 5° C.) % purity=[(peak area compound)×100/(total peak area)]

The mark [5] stands for this setting: pH 7.4, 100 mM phosphate buffer.

The structures appear in SMILES notation. pEC50: −log10 of the molar value. In brackets after ≈: the same amount, converted by molar mass. Where two headings read alike, the source gives them in different places. Starred links: 1 amine or outer side, 2 acyl side, 3 side chain; linkers in the order of their positions; H or OH if unused. Non-standard residues stand in square brackets, D forms with d. Residues, ends and D or L forms follow the SMILES beside them. Groups on a side chain read outwards from the residue. *: point of attachment. C16 diacid = O=C(O)CCCCCCCCCCCCCCC(=O)*; γGlu = O=C(O)[C@H](CCC(=O)[*:2])N[*:1]; Aib = CC(C)(N)C(=O)O

For `CC[C@H](C)[C@H](N)C(=O)N[C@H](C(=O)N[C@@H](CC(C)C)C(=O)N[C@@H](CO)C(=O)N[C@@H](CC(C)C)C(=O)N[C@@H](CC(=O)O)C(=O)N[C@@H](C(=O)N1CCC[C@H]1C(=O)N[C@H](C(=O)N[C@@H](CCCCN)C(=O)N[C@@H](CC(C)C)C(=O)N[C@@H](CCCCNC(=O)CC[C@H](NC(=O)CCCCCCCCCCCCCCC(=O)O)C(=O)O)C(=O)N[C@@H](CCC(N)=O)C(=O)N[C@H](C(=O)N[C@@H](CC(C)C)C(=O)N[C@@H](CC(C)C)C(=O)N[C@@H](CCCCN)C(=O)N[C@@H](CCC(N)=O)C(=O)N[C@@H](CCC(=O)O)C(=O)N[C@@H](CCCNC(=N)N)C(=O)N[C@@H](CCC(N)=O)C(=O)N[C@@H](CCCCN)C(=O)NC(C)(C)C(=O)N[C@@H](CCC(N)=O)C(=O)N[C@@H](CCCNC(=N)N)C(=O)N[C@@H](CCC(=O)O)C(=O)N[C@@H](CCC(N)=O)C(=O)N[C@@H](C)C(=O)N[C@@H](CCC(=O)O)C(=O)N[C@@H](CCCCN)C(=O)N[C@@H](CC(N)=O)C(=O)N[C@@H](CCCCN)C(=O)N[C@@H](CCC(N)=O)C(=O)N[C@H](C(=O)N[C@@H](CC(C)C)C(=O)N[C@@H](C)C(=O)N[C@@H](CCC(N)=O)C(=O)N[C@H](C(N)=O)C(C)C)[C@@H](C)CC)[C@@H](C)CC)[C@@H](C)CC)C(C)C)C(C)C` [compound 187] (H-IVLSLD[dV]PIKLK([γGlu-C16 diacid])QILLKQERQK[Aib]QREQAEKNKQILAQV-NH2), the EC50 on human CRF2α receptor was 0.44 nM; at CRF1R receptor, more than 100 nM. This compound also displayed a maximal effect (Emax) on CRF1R receptor of 43.8%. Also, on CRF1R receptor, the pEC50 is less than 7.00. Also, the CRF1/CRF2 ratio at CRF1R receptor is reported as more than 500. The “% remaining at 2 hours” value in data set [1] (120 min) is on record as 92%. In addition, the amount remaining at 2 h in data set [1] worked out at 102%; in data set [2], 97%. Further, the solubility at 1 h in data set [3] (pH 4.5, 100 mM acetate buffer) was 8200 µg/mL (≈ 1690 µM); in data set [3] (setting [5]), 8800 µg/mL (≈ 1810 µM). Further, the “% loss (chemical stability)” value in data set [4] (pH 4.5) stood at 0%; in data set [4] (pH 7.4), 31%.

At human CRF2α receptor, `CC[C@H](C)[C@H](N)C(=O)N[C@H](C(=O)N[C@@H](CC(C)C)C(=O)N[C@@H](CO)C(=O)N[C@@H](CC(C)C)C(=O)N[C@@H](CC(=O)O)C(=O)N[C@@H](C(=O)N1CCC[C@H]1C(=O)N[C@H](C(=O)NCC(=O)N[C@@H](CC(C)C)C(=O)N[C@@H](CCCCNC(=O)CC[C@H](NC(=O)CCCCCCCCCCCCCCC(=O)O)C(=O)O)C(=O)N[C@@H](CCC(N)=O)C(=O)N[C@H](C(=O)N[C@@H](CC(C)C)C(=O)N[C@@H](CC(C)C)C(=O)N[C@@H](CCCCN)C(=O)N[C@@H](CCC(N)=O)C(=O)N[C@@H](CCC(=O)O)C(=O)N[C@@H](CCCNC(=N)N)C(=O)N[C@@H](CCC(N)=O)C(=O)N[C@@H](CCCCN)C(=O)N[C@@H](CCCCN)C(=O)NC(C)(C)C(=O)N[C@@H](CCCNC(=N)N)C(=O)N[C@@H](CCC(=O)O)C(=O)N[C@@H](CCC(N)=O)C(=O)N[C@@H](C)C(=O)N[C@@H](CCC(=O)O)C(=O)N[C@H](C(=O)N[C@@H](CC(N)=O)C(=O)N[C@@H](CCCCN)C(=O)N[C@@H](CCCNC(=N)N)C(=O)N[C@H](C(=O)N[C@@H](CC(C)C)C(=O)N[C@@H](CCC(=O)O)C(=O)N[C@@H](CCCNC(=N)N)C(=O)N[C@H](C(N)=O)C(C)C)[C@@H](C)CC)[C@@H](C)O)[C@@H](C)CC)[C@@H](C)CC)C(C)C)C(C)C` [compound 193] (H-IVLSLD[dV]PIGLK([γGlu-C16 diacid])QILLKQERQKK[Aib]REQAETNKRILERV-NH2) displayed an EC50 of 0.82 nM. Also, at CRF1R receptor, the concentration giving a half-maximal response (EC50) was more than 100 nM, the maximal response (Emax) was 8.77%, the pEC50 is less than 7.00 and the CRF1/CRF2 ratio is more than 500. Moreover, in data set [1], the share remaining at 2 h came out at 84%. Further, the share remaining at 2 h in data set [2] came to 80%. The same compound displayed a solubility at 1 h in data set [3] (pH 4.5, 100 mM acetate buffer) of 8600 µg/mL (≈ 1770 µM). The solubility at 1 h in data set [3] (setting [5]) came out at 100 µg/mL (≈ 20.6 µM).

With `CC[C@H](C)[C@H](N)C(=O)N[C@H](C(=O)N[C@@H](CC(C)C)C(=O)N[C@@H](CO)C(=O)N[C@@H](CC(C)C)C(=O)N[C@@H](CC(=O)O)C(=O)N[C@@H](C(=O)N1CCC[C@H]1C(=O)N[C@H](C(=O)NCC(=O)N[C@@H](CC(C)C)C(=O)N[C@@H](CCCCNC(=O)CC[C@H](NC(=O)CCCCCCCCCCCCCCC(=O)O)C(=O)O)C(=O)N[C@@H](CCC(N)=O)C(=O)N[C@H](C(=O)N[C@@H](CC(C)C)C(=O)N[C@@H](CC(C)C)C(=O)N[C@@H](CCCCN)C(=O)N[C@@H](CCC(N)=O)C(=O)N[C@@H](CCC(=O)O)C(=O)N[C@@H](CCCNC(=N)N)C(=O)N[C@@H](CCC(N)=O)C(=O)N[C@@H](CCCCN)C(=O)N[C@@H](CCCCN)C(=O)NC(C)(C)C(=O)N[C@@H](CCCNC(=N)N)C(=O)N[C@@H](CCC(=O)O)C(=O)N[C@@H](CCC(N)=O)C(=O)N[C@@H](C)C(=O)N[C@@H](CCC(=O)O)C(=O)N[C@H](C(=O)N[C@@H](CC(N)=O)C(=O)N[C@@H](CCCCN)C(=O)N[C@@H](CCC(N)=O)C(=O)N[C@H](C(=O)N[C@@H](CC(C)C)C(=O)N[C@@H](C)C(=O)N[C@@H](CCC(N)=O)C(=O)N[C@H](C(N)=O)C(C)C)[C@@H](C)CC)[C@@H](C)O)[C@@H](C)CC)[C@@H](C)CC)C(C)C)C(C)C` [compound 194] (H-IVLSLD[dV]PIGLK([γGlu-C16 diacid])QILLKQERQKK[Aib]REQAETNKQILAQV-NH2; N-terminus assumed), the EC50 on human CRF2α receptor is 0.11 nM; at CRF1R receptor it was more than 100 nM. This compound returned a maximal effect (Emax) on CRF1R receptor of 21.6%. The share remaining at 2 h amounted to 85% in data set [1] and 101% in data set [2]. Further, the solubility at 1 h in data set [3] (pH 4.5, 100 mM acetate buffer) was 7300 µg/mL (≈ 1540 µM); in data set [3] (setting [5]) it was 700 µg/mL (≈ 147 µM).
